# Reference: patent publication US20230183179A1, “NOVEL CELL METABOLISM MODULATING COMPOUNDS AND USES THEREOF” (CRESCENTA BIOSCIENCES, priority 2020, published 2023)
# Key:
# [1] = tested on: differentiated 3T3-L1 mouse adipocyte cells; experiment: Adipocyte glucose consumption in differentiated 3T3-L1 cells (colorimetric glucose assay of the medium); type: cell-based; conditions: 3T3-L1, 24 h, compound 10 μM, loss of glucose from culture medium, mean fold change (compound/DMSO)
# Procedure: Activity of compounds on adipocyte glucose consumption was tested in differentiated 3T3-L1 mouse adipocyte cells. 3T3-L1 preadipocytes (ATCC) were routinely cultured in a growth medium composed of DMEM high-glucose (Sigma), 10% FBS (Gibco), 10 U/ml penicillin and 10 μg/ml streptomycin (P/S; Gibco). To induce adipogenic differentiation, a confluent layer of 3T3-L1 cells were incubated with the growth medium containing 2 μM rosiglitazone, 1 μM dexamethasone, 500 μM IBMX, and 1 μg/ml insulin (Sigma). Forty-eight (48) hours later (on day 2) and on days 4 and 6, medium of the cells was replaced with fresh medium containing 1 μg/ml insulin. On days 8 and 10, the medium was refreshed with regular growth medium and addition of insulin was omitted. On day 11, medium of the cells were 10 replaced with fresh medium containing either the indicated compounds (10 μM) or the vehicle in which the compounds were dissolved (DMSO). The final concentration of DMSO was 0.1% (v/v). Growth medium containing 0.1% DMSO was incubated in culture wells containing no cells and used as control. 24 hours later, medium was harvested and subjected to centrifugation at 10,000 g for 5 min. Glucose concentration in the supernatants was determined using a 15 colorimetric assay (Glucose Assay Kit I, Eton Biosciences). Glucose consumption in compound and vehicle treated cells was measured as loss of glucose from the culture medium and represented as mean fold change (compound/DMSO)±standard deviation (SD).
# [2] = target: T1, His6 tagged human recombinant FABP4 (Homo sapiens, UniProt P15090); experiment: FABP4 TR-FRET assay: displacement of fluorescent fatty acid BODIPY FL C12; conditions: inhibition of BODIPY FL C12 binding to His6-FABP4; 1.2 μL of 1.085 mM compound in DMSO per well; triplicates, mean percent inhibition
# T1 construct: purchased Cayman Chemicals 10009549
# T1 sequence (P15090 whole entry): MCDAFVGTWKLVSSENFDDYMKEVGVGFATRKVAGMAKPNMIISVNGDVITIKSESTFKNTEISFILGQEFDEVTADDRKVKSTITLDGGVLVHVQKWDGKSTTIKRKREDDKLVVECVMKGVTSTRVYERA
# Text: Activity of compounds with FABP4 was profiled using a Terbium (Tb) based time resolved fluorescence energy transfer (TR-FRET) assay. The assay measures the compound mediated displacement of the fluorescent fatty acid BODIPY FL C12 (Thermo Fisher; catalog number D3822) from His6 tagged human recombinant FABP4 (His6-FABP4; Cayman Chemicals, catalog number 10009549) via recording the energy transfer from TB donor molecule on anti-His6-tag antibody to acceptor BODIPY moiety. Briefly, compounds and BODIPY FL C12 were prepared at a concentration of 1.085 mM and 4.2 μM, respectively, in DMSO. 1.2 μL of each compound or DMSO (vehicle control) and 1.2 μL of BODIPY FL C12 were added into the wells of a 384-well black polypropylene plate. His6-FABP4 and Tb anti-His6 antibody were prepared in the assay buffer (25 mM Tris/HCl, pH 7.4, 0.4 mg/ml γ-globulins, 0.010% NP-40, 1 mM DTT) at a concentration of 83 nM and 49.6 nM, respectively. The protein and antibody solutions were then mixed at a ratio of 34:7 (v/v) and incubated on ice for 30 minutes. The assay was initiated by adding 41 μL of the resulting protein/antibody solution into the wells containing the compounds and BODIPY FL C12. The plate was centrifuged and incubated at room temperature for 10 min. The TR-FRET signals were recorded using an EnVision Multilabel plate reader (PerkinElmer; TB excitation 320 nm, BODIPY FL C12 emission 520 nm; TB emission 615 nm). Relative fluorescence ratio (520 nm*10,000/615 nm) were used to calculate the compound mediated inhibition of BODIPY C12 FL fatty acid binding to FABP4. The compounds were tested in triplicates and the results were represented as mean percent inhibition (compound*100/DMSO)±standard deviation (SD). Glucose consumption and FABP4 inhibition is shown below in Table 3 below. The compounds showing no inhibition of activity in the TR-FRET assay are marked as N.A. N.D. stands for “not determined”.
Structure (SMILES),fold induction at 10 µM [1],inhibition at 1085 µM (stock) [2]
CCc1ccc2nc(OCC(=O)O)cc(-c3ccccc3)c2c1 [2-[(6-ethyl-4-phenylquinolin-2-yl)oxy]acetic acid],0.97,31.9%
CCCCCCCCc1ccc2nc(N(C)CC(=O)O)cc(Oc3ccncc3)c2c1 [2-{methyl [6-octyl-4-(pyridin-4-yloxy)quinolin-2-yl]amino}acetic acid],1.14,19.4%
Clc1ccc2nc(N3CCCCC3)cc(-c3ccccc3)c2c1 [6-chloro-4-phenyl-2-(piperidin-1-yl)quinoline],0.99,64.3%
CCCc1ccc2nc(N(C)CC(=O)O)cc(-c3cccc(C#N)c3)c2c1 [2-([4-(3-cyanophenyl)-6-propylquinolin-2-yl](methyl)amino}acetic acid],1.31,27.7%
CCCCCCc1ccc2nc(N3CC(C(=O)O)CC3=O)cc(-c3ccccc3)c2c1 (centres unmarked) [1-(6-hexyl-4-phenylquinolin-2-yl)-5-oxopyrrolidine-3-carboxylic acid],1.11,6.12%
CCCCc1ccc2nc(N(C)CC(=O)O)cc(-c3ccc(F)cc3)c2c1 [2-{[6-butyl-4-(4-fluorophenyl)quinolin-2-yl](methyl)amino}acetic acid],1.49,58.6%
CCCCc1ccc2nc(N(C)CC(=O)O)cc(-c3ccccc3F)c2c1 [2-{[6-butyl-4-(2-fluorophenyl)quinolin-2-yl](methyl)amino}acetic acid],1.33,67%
CCCCCCc1ccc2nc(N3CCOC(C(=O)O)C3)cc(-c3ccccc3)c2c1 (centres unmarked) [4-(6-hexyl-4-phenylquinolin-2-yl)morpholine-2-carboxylic acid],1.22,36.1%
CCCCCCCCc1ccc2nc(N(C)CC(=O)O)cc(Oc3cccnc3)c2c1 [2-{methyl [6-octyl-4-(pyridin-3-yloxy)quinolin-2-yl]amino}acetic acid],1.47,83.6%
CCCCCCc1ccc2nc(N(C)CC(=O)O)cc(-c3ccncc3)c2c1 [2-{[6-hexyl-4-(pyridin-4-yl)quinolin-2-yl](methyl)amino}acetic acid],1.17,51.4%
"CCCCCCc1ccc2nc(N(C)CC(=O)O)cc(N3CCC(F)(F)CC3)c2c1 [2-{[4-(4,4-difluoropiperidin-1-yl)-6-hexylquinolin-2-yl](methyl)amino}acetic acid]",1.23,53.7%
"CCCCCCc1ccc2nc(N(c3nnn[nH]3)C3CC3)cc(-c3ccccc3)c2c1 [N-cyclopropyl-6-hexyl-4-phenyl-N-(1H-1,2,3,4-tetrazol-5-yl)quinolin-2-amine]",1.18,84%
COc1ccc2nc(N(C)CC(=O)O)cc(-c3ccccc3)c2c1 [2-[(6-methoxy-4-phenylquinolin-2-yl)(methyl)amino]acetic acid],1.12,101%
CCCc1ccc2nc(OCC(=O)O)cc(-c3cccc(C(N)=O)c3)c2c1 [2-{[4-(3-carbamoylphenyl)-6-propylquinolin-2-yl]oxy}acetic acid],1,42.9%
CCCCCCc1ccc2nc(OCC(=O)O)cc(-c3cccc(C#N)c3)c2c1 [2-{[4-(3-cyanophenyl)-6-hexylquinolin-2-yl]oxy}acetic acid],1.02,39.4%
CCCCCCCCc1ccc2nc(N(CC(=O)O)CC(C)C)cc(-c3ccc(F)cc3)c2c1 [2-{[4-(4-fluorophenyl)-6-octylquinolin-2-yl](2-methylpropyl)amino}acetic acid],1.28,68%

Structure (SMILES),fold induction at 10 µM [1],inhibition at 1085 µM (stock) [2]
CCCCCCc1ccc2nc(N(C)CC(C)C(=O)O)cc(-c3cccnc3)c2c1 (centres unmarked) [3-{[6-hexyl-4-(pyridin-3-yl)quinolin-2-yl](methyl)amino}-2-methylpropanoic acid],1.16,54.7%
"CCCCCCc1ccc2nc(N(C)Cc3nn[nH]n3)cc(-c3ccccc3)c2c1 [6-hexyl-N-methyl-4-phenyl-N-[(2H-1,2,3,4-tetrazol-5-yl)methyl]quinolin-2-amine]",1.52,37.8%
CCCCc1ccc2nc(N3CCCC3C(=O)O)cc(-c3ccccc3)c2c1 (centres unmarked) [1-(6-butyl-4-phenylquinolin-2-yl)pyrrolidine-2-carboxylic acid],1.12,92.5%
O=C(O)C1CC(=O)N(c2cc(-c3ccccc3)c3cc(CCc4ccccc4)ccc3n2)C1 (centres unmarked) [5-oxo-1-[4-phenyl-6-(2-phenylethyl)quinolin-2-yl]pyrrolidine-3-carboxylic acid],1.24,7.89%
CCCCC(=O)Nc1ccc2nc(N(C)CC(=O)O)cc(-c3ccccc3)c2c1 [2-[methyl(6-pentanamido-4-phenylquinolin-2-yl)amino]acetic acid],0.98,28.7%
CN(CC(=O)O)c1cc(-c2ccccc2)c2cc(CCc3cnccn3)ccc2n1 [2-[methyl({4-phenyl-6-[2-(pyrazin-2-yl)ethyl]quinolin-2-yl})amino]acetic acid],1.28,4.98%
CN(CC(=O)O)c1cc(-c2ccccc2)c2cc(OCc3ccccc3)ccc2n1 [2-{[6-(benzyloxy)-4-phenylquinolin-2-yl](methyl)amino}acetic acid],1.27,84.2%
CCCCc1ccc2nc(N(C)CC(=O)O)cc(-c3cccc(F)c3)c2c1 [2-{[6-butyl-4-(3-fluorophenyl)quinolin-2-yl](methyl)amino}acetic acid],1.43,58.9%
CN(CC(=O)O)c1cc(-c2ccccc2)c2cc(Br)ccc2n1 [2-[(6-bromo-4-phenylquinolin-2-yl)(methyl)amino]acetic acid],1.26,109%
"CN(CC(=O)O)c1cc(-c2ccc(F)cc2)c2cc(-c3ccc(F)cc3)ccc2n1 [2-{[4,6-bis(4-fluorophenyl)quinolin-2-yl](methyl)amino}acetic acid]",1.28,42%
CCCc1ccc2nc(N(C)CC(=O)O)cc(-c3cccc(C(N)=O)c3)c2c1 [2-{[4-(3-carbamoylphenyl)-6-propylquinolin-2-yl](methyl)amino}acetic acid],1.07,48%
CCCCCc1ccc2nc(OCC(=O)O)cc(-c3cccc(C(N)=O)c3)c2c1 [2-{[4-(3-carbamoylphenyl)-6-pentylquinolin-2-yl]oxy}acetic acid],1.02,74.2%
CCCCCCCCc1ccc2nc(N(C)CC(=O)O)cc(-c3ccc(F)cc3)c2c1 [2-{[4-(4-fluorophenyl)-6-octylquinolin-2-yl](methyl)amino}acetic acid],1.28,53.8%
Cc1cccc(CCc2ccc3nc(N(C)CC(=O)O)cc(-c4ccccc4)c3c2)c1 [2-[methyl({6-[2-(3-methylphenyl)ethyl]-4-phenylquinolin-2-yl})amino]acetic acid],1.53,50.2%
CCCCc1ccc2nc(N(C)CC(=O)O)cc(-c3ccc(C#N)cc3)c2c1 [2-{[6-butyl-4-(4-cyanophenyl)quinolin-2-yl](methyl)amino}acetic acid],1.18,16.8%
